For the test, the system named is M. catarrhalis A894. Nature of the test: Minimal inhibitory concentration (MIC), microdilution method in cation-adjusted Mueller-Hinton Broth (CLSI M7-A7). In kind it is cell-based. As to conditions: Moraxella catarrhalis, strain A894. How it is done: Minimal inhibitory concentrations (MICs; mg/1) were determined in cation-adjusted Mueller-Hinton Broth by a microdilution method following the description given in “Methods for Dilution Antimicrobial Susceptibility Tests for Bacteria that Grow Aerobically”, Approved standard, 7th ed., Clinical and Laboratory Standards Institute (CLSI) Document M7-A7, Wayne, Pa., USA, 2006.
Regarding `O=C1COc2ccc(N3C[C@H](CCNCC4Cn5c(=O)ccc6ccc(F)c4c65)OC3=O)cc2N1` (mixture of isomers) [Example 1, (1RS)-9-fluoro-1-({2-[(S)-2-oxo-3-(3-oxo-3,4-dihydro-2H-benzo[1,4]oxazin-6-yl)-oxazolidin-5-yl]-ethylamino}-methyl)-1,2-dihydro-pyrrolo[3,2,1-ij]quinolin-4-one], the MIC is at most 0.031 µg/mL.
The figure for `O=C1COc2ccc(N3C[C@@H](CCNCC4Cn5c(=O)ccc6ccc(F)c4c65)OC3=O)cc2N1` (mixture of isomers) [Example 2, (1RS)-9-fluoro-1-({2-[(R)-2-oxo-3-(3-oxo-3,4-dihydro-2H-benzo[1,4]oxazin-6-yl)-oxazolidin-5-yl]-ethylamino}-methyl)-1,2-dihydro-pyrrolo[3,2,1-ij]quinolin-4-one] is at most 0.031 µg/mL; for `O=C1CSc2ccc(N3C[C@@H](CCNCC4Cn5c(=O)ccc6ccc(F)c4c65)OC3=O)cc2N1` (mixture of isomers) [Example 3, (1RS)-9-fluoro-1-({2-[(R)-2-oxo-3-(3-oxo-3,4-dihydro-2H-benzo[1,4]thiazin-6-yl)-oxazolidin-5-yl]-ethylamino}-methyl)-1,2-dihydro-pyrrolo[3,2,1-ij]quinolin-4-one] it is at most 0.031 µg/mL; for `O=C1CSc2ccc(N3C[C@H](CCNCC4Cn5c(=O)ccc6ccc(F)c4c65)OC3=O)cc2N1` (mixture of isomers) [Example 4, (1RS)-9-fluoro-1-({2-[(S)-2-oxo-3-(3-oxo-3,4-dihydro-2H-benzo[1,4]thiazin-6-yl)-oxazolidin-5-yl]-ethylamino}-methyl)-1,2-dihydro-pyrrolo[3,2,1-ij]quinolin-4-one] it is at most 0.031 µg/mL.
As for `O=C1CSc2ccc(N3C[C@@H](CNCC4Cn5c(=O)ccc6ccc(F)c4c65)OC3=O)cc2N1` (mixture of isomers) [Example 5, (1RS)-9-fluoro-1-({[(R)-2-oxo-3-(3-oxo-3,4-dihydro-2H-benzo[1,4]thiazin-6-yl)-oxazolidin-5-ylmethyl]-amino}-methyl)-1,2-dihydro-pyrrolo[3,2,1-ij]quinolin-4-one], the figure is at most 0.031 µg/mL; as for `O=C1O[C@H](CNCCC2Cn3c(=O)ccc4ccc(F)c2c43)CN1c1ccc2c(c1)OCCO2` (mixture of isomers) [Example 7, (1RS)-1-(2-{[(R)-3-(2,3-dihydro-benzo[1,4]dioxin-6-yl)-2-oxo-oxazolidin-5-ylmethyl]-amino}-ethyl)-9-fluoro-1,2-dihydro-pyrrolo[3,2,1-ij]quinolin-4-one], at most 0.031 µg/mL.
As for `O=C1CSc2ccc(N3C[C@H](CNCCC4Cn5c(=O)ccc6ccc(F)c4c65)OC3=O)cc2N1` (mixture of isomers) [Example 8, (1RS)-9-fluoro-1-(2-{[(S)-2-oxo-3-(3-oxo-3,4-dihydro-2H-benzo[1,4]thiazin-6-yl)-oxazolidin-5-ylmethyl]-amino}-ethyl)-1,2-dihydro-pyrrolo[3,2,1-ij]quinolin-4-one], the figure is at most 0.031 µg/mL; as for `O=C1COc2ccc(N3C[C@@H](CNCCC4Cn5c(=O)ccc6ccc(F)c4c65)OC3=O)cc2N1` (mixture of isomers) [Example 9, (1RS)-9-fluoro-1-(2-{[(R)-2-oxo-3-(3-oxo-3,4-dihydro-2H-benzo[1,4]oxazin-6-yl)-oxazolidin-5-ylmethyl]-amino}-ethyl)-1,2-dihydro-pyrrolo[3,2,1-ij]quinolin-4-one], at most 0.031 µg/mL.
Turning to `O=C1CSc2ccc(N3C[C@@H](CNCCC4Cn5c(=O)ccc6ccc(F)c4c65)OC3=O)cc2N1` (mixture of isomers) [Example 10, (1RS)-9-fluoro-1-(2-{[(R)-2-oxo-3-(3-oxo-3,4-dihydro-2H-benzo[1,4]thiazin-6-yl)-oxazolidin-5-ylmethyl]-amino}-ethyl)-1,2-dihydro-pyrrolo[3,2,1-ij]quinolin-4-one], the minimum inhibitory concentration (MIC) is at most 0.031 µg/mL.
As for `Cc1ccc(N2C[C@@H](CNCCC3Cn4c(=O)ccc5ccc(F)c3c54)OC2=O)cc1F` (mixture of isomers) [Example 11, (1RS)-9-fluoro-1-(2-{[(R)-3-(3-fluoro-4-methyl-phenyl)-2-oxo-oxazolidin-5-ylmethyl]-amino}-ethyl)-1,2-dihydro-pyrrolo[3,2,1-ij]quinolin-4-one], the figure is 0.063 µg/mL; as for `O=C1COc2ccc(N3C[C@@H](CCCNC4Cn5c(=O)ccc6ccc(F)c4c65)OC3=O)cc2N1` (mixture of isomers) [Example 12, (1RS)-9-fluoro-1-{3-[(R)-2-oxo-3-(3-oxo-3,4-dihydro-2H-benzo[1,4]oxazin-6-yl)-oxazolidin-5-yl]-propylamino}-1,2-dihydro-pyrrolo[3,2,1-ij]quinolin-4-one], at most 0.031 µg/mL; as for `O=C1CSc2ccc(N3C[C@@H](CCCNC4Cn5c(=O)ccc6ccc(F)c4c65)OC3=O)cc2N1` (mixture of isomers) [Example 13, (1RS)-9-fluoro-1-{3-[(R)-2-oxo-3-(3-oxo-3,4-dihydro-2H-benzo[1,4]thiazin-6-yl)-oxazolidin-5-yl]-propylamino}-1,2-dihydro-pyrrolo[3,2,1-ij]quinolin-4-one], at most 0.031 µg/mL.
As for `O=C1CSc2ccc(N3C[C@H](CNCCC4Cn5c(=O)ccc6ncc(F)c4c65)OC3=O)cc2N1` (mixture of isomers) [Example 16, (4RS)-3-fluoro-4-(2-{[(S)-2-oxo-3-(3-oxo-3,4-dihydro-2H-benzo[1,4]thiazin-6-yl)-oxazolidin-5-ylmethyl]-amino}-ethyl)-4,5-dihydro-pyrrolo[3,2,1-de][1,5]naphthyridin-7-one], the figure is at most 0.031 µg/mL.
Take `O=C1CSc2ccc(N3C[C@@H](CNCCC4Cn5c(=O)ccc6ncc(F)c4c65)OC3=O)cc2N1` (mixture of isomers) [Example 17, (4RS)-3-fluoro-4-(2-{[(R)-2-oxo-3-(3-oxo-3,4-dihydro-2H-benzo[1,4]thiazin-6-yl)-oxazolidin-5-ylmethyl]-amino}-ethyl)-4,5-dihydro-pyrrolo[3,2,1-de][1,5]naphthyridin-7-one]: the minimum inhibitory concentration (MIC) was at most 0.031 µg/mL.
`O=C1CSc2ccc(N3C[C@@H](CCCNC4Cn5c(=O)cnc6cccc4c65)OC3=O)cc2N1` (mixture of isomers) [Example 20, (6RS)-6-{3-[(R)-2-oxo-3-(3-oxo-3,4-dihydro-2H-benzo[1,4]thiazin-6-yl)-oxazolidin-5-yl]-propylamino}-5,6-dihydro-pyrrolo[1,2,3-de]quinoxalin-3-one] gave an MIC of at most 0.031 µg/mL.
The figure for `O=C1COc2ccc(N3C[C@@H](CCCNC4Cn5c(=O)cnc6cccc4c65)OC3=O)cc2N1` (mixture of isomers) [Example 21, (6RS)-6-{3-[(R)-2-oxo-3-(3-oxo-3,4-dihydro-2H-benzo[1,4]oxazin-6-yl)-oxazolidin-5-yl]-propylamino}-5,6-dihydro-pyrrolo[1,2,3-de]quinoxalin-3-one] is at most 0.031 µg/mL; for `O=C1CSc2ccc(N3C[C@H](CNCCC4CN5C(=O)CCc6ccc(F)c4c65)OC3=O)cc2N1` (mixture of isomers) [Example 22, (1RS)-9-fluoro-1-(2-{[(S)-2-oxo-3-(3-oxo-3,4-dihydro-2H-benzo[1,4]thiazin-6-yl)-oxazolidin-5-ylmethyl]-amino}-ethyl)-1,2,5,6-tetrahydro-pyrrolo[3,2,1-ij]quinolin-4-one] it is at most 0.031 µg/mL; for `O=C1CSc2ccc(N3C[C@@H](CCNCC4CN5C(=O)CCc6ccc(F)c4c65)OC3=O)cc2N1` (mixture of isomers) [Example 23, (1RS)-9-fluoro-1-({2-[(R)-2-oxo-3-(3-oxo-3,4-dihydro-2H-benzo[1,4]thiazin-6-yl)-oxazolidin-5-yl]-ethylamino}-methyl)-1,2,5,6-tetrahydro-pyrrolo[3,2,1-ij]quinolin-4-one] it is at most 0.031 µg/mL.
The figure for `O=C1CSc2ccc(N3C[C@@H](CNCCC4CN5C(=O)CCc6ccc(F)c4c65)OC3=O)cc2N1` (mixture of isomers) [Example 24, (1RS)-9-fluoro-1-(2-{[(R)-2-oxo-3-(3-oxo-3,4-dihydro-2H-benzo[1,4]thiazin-6-yl)-oxazolidin-5-ylmethyl]-amino}-ethyl)-1,2,5,6-tetrahydro-pyrrolo[3,2,1-ij]quinolin-4-one] is at most 0.031 µg/mL.
As for `O=C1COc2ccc(N3C[C@@H](CNCCC4CN5C(=O)CCc6ccc(F)c4c65)OC3=O)cc2N1` (mixture of isomers) [Example 25, (1RS)-9-fluoro-1-(2-{[(R)-2-oxo-3-(3-oxo-3,4-dihydro-2H-benzo[1,4]oxazin-6-yl)-oxazolidin-5-ylmethyl]-amino}-ethyl)-1,2,5,6-tetrahydro-pyrrolo[3,2,1-ij]quinolin-4-one], the figure is at most 0.031 µg/mL; as for `O=C1O[C@H](CNCCC2CN3C(=O)CCc4ccc(F)c2c43)CN1c1ccc2c(c1)OCCO2` (mixture of isomers) [Example 26, (1RS)-1-(2-{[(R)-3-(2,3-dihydro-benzo[1,4]dioxin-6-yl)-2-oxo-oxazolidin-5-ylmethyl]-amino}-ethyl)-9-fluoro-1,2,5,6-tetrahydro-pyrrolo[3,2,1-ij]quinolin-4-one], 0.25 µg/mL; as for `Cc1ccc(N2C[C@@H](CNCCC3CN4C(=O)CCc5ccc(F)c3c54)OC2=O)cc1F` (mixture of isomers) [Example 27, (1RS)-9-fluoro-1-(2-{[(R)-3-(3-fluoro-4-methyl-phenyl)-2-oxo-oxazolidin-5-ylmethyl]-amino}-ethyl)-1,2,5,6-tetrahydro-pyrrolo[3,2,1-ij]quinolin-4-one], 0.5 µg/mL.
For `O=C1CSc2ccc(N3C[C@@H](CCNCC4Cn5c(=O)ccc6ncc(F)c4c65)OC3=O)cc2N1` (mixture of isomers) [Example 28, (4RS)-3-fluoro-4-({2-[(R)-2-oxo-3-(3-oxo-3,4-dihydro-2H-benzo[1,4]thiazin-6-yl)-oxazolidin-5-yl]-ethylamino}-methyl)-4,5-dihydro-pyrrolo[3,2,1-de][1,5]naphthyridin-7-one], the minimum inhibitory concentration (MIC) is at most 0.031 µg/mL.

These data come from patent US9822114B2, “Tricyclic oxazolidinone antibiotic compounds” (Idorsia Pharmaceuticals Ltd, priority 2008, dated 2017).
